Results on 14 compounds are retold here after ChEMBL document CHEMBL1141168, “Studies toward the pharmacophore of salvinorin A, a potent kappa opioid receptor agonist” (J Med Chem, 2005).

The species named for assay [1] is Rattus norvegicus. In words: Emax value against intracellular calcium mobilization in rat. Format: functional.
The species entered for assay [2] is Rattus norvegicus. Put plainly: Effective concentration of compound against intracellular calcium mobilization in rat. The class given is functional.
The target of assay [3] is T1, Kappa-type opioid receptor (Rattus norvegicus, UniProt P34975). In words: biochemical. The class given is cell-based, HEK293.
T1 sequence (P34975 whole entry): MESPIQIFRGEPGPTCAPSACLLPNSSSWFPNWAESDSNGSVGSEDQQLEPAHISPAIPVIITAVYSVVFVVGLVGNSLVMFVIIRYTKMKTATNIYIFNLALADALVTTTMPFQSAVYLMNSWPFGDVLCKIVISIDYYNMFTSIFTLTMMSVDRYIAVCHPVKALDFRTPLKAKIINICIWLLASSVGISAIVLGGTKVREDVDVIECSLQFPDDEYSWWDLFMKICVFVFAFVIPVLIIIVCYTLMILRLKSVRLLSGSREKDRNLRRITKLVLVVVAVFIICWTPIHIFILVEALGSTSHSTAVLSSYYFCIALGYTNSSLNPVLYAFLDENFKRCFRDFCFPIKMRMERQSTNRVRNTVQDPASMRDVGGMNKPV
Description: Inhibition of [3H]U-69593 binding to rat opioid receptor kappa 1 expressed in HEK 293 cells
Assay [4] concerns the target T1, Kappa-type opioid receptor. In words: Inhibition of [3H]diprenorphine binding to rat opioid receptor kappa 1 expressed in HEK 293 cells. The class given is cell-based, HEK293.

On to `COC(=O)[C@@H]1C[C@H](OC(C)=O)C(=O)[C@H]2[C@@]1(C)CCC1=CO[C@H](c3ccoc3)C[C@@]12C`, for which the Emax in the assay listed under Rattus norvegicus [1] stood at 103%. Further, the EC50 in the assay listed under Rattus norvegicus [2] came to 223 nM. For the same compound, the inhibition constant (Ki) in assay [3] was 6 nM.

Consider `COC(=O)[C@@H]1C[C@H](OC(C)=O)C(=O)[C@@H]2[C@@]3(C)C[C@@H](c4ccoc4)OC(=O)[C@H]3CC[C@]21C` [SALVINORIN A (ESTER)], for which, in the assay listed under Rattus norvegicus [1], the Emax amounted to 78%. In the assay listed under Rattus norvegicus [2], the 50% effective concentration (EC50) was 244 nM.

`COC(=O)C1=C[C@H](OC(C)=O)[C@H](O)[C@@H]2[C@@]3(C)C[C@@H](c4ccoc4)OC(=O)[C@@H]3CC[C@@]12C`: the Ki in assay [4] is above 10000 nM.

As for `COC(=O)[C@@H]1C[C@H](OC(C)=O)C(=O)[C@H]2[C@@]1(C)CC[C@H]1C(=O)O[C@H](C3CCOC3)C[C@]21C` (some centres undefined), the Emax in the assay filed under Rattus norvegicus [1] was determined as 108%. Moreover, in the assay listed under Rattus norvegicus [2], the concentration giving a half-maximal response (EC50) amounted to 126 nM. The compound further registered a Ki in assay [3] of 156 nM.

`COC(=O)[C@@H]1C[C@H](OC(C)=O)[C@H](OC(C)=O)[C@H]2[C@@]1(C)CC[C@H]1C(=O)O[C@H](c3ccoc3)C[C@]21C` showed an inhibition constant Ki in assay [3] above 10000 nM.

Turning to `COC(=O)C1=C[C@H](O)[C@H](OC(C)=O)[C@@H]2[C@@]3(C)C[C@@H](c4ccoc4)OC(=O)[C@@H]3CC[C@@]12C`, the inhibition constant Ki in assay [3] is above 10000 nM.

Take `CC(=O)O[C@H]1C[C@@H](CO)[C@]2(C)CC[C@H]3C(=O)O[C@H](c4ccoc4)C[C@]3(C)[C@H]2C1=O`: the EC50 in the assay filed under Rattus norvegicus [2] was above 10000 nM. This compound had a Ki in assay [3] of 347 nM.

`COC(=O)[C@@H]1C[C@H](OC(C)=O)C[C@H]2[C@@]1(C)CC[C@H]1C(=O)O[C@H](c3ccoc3)C[C@]21C`: in the assay listed under Rattus norvegicus [1], the Emax was 122%. Moreover, the EC50 in the assay listed under Rattus norvegicus [2] turned out to be 141 nM. Further, the Ki in assay [3] was found to be 18 nM.

As for `COC(=O)[C@@H]1C[C@H](OC(C)=O)C(=O)[C@@H]2[C@@]3(C)C[C@@H](c4ccoc4)OC[C@@H]3CC[C@]21C`, the Emax in the assay listed under Rattus norvegicus [1] is 103%. Besides, in the assay listed under Rattus norvegicus [2], the EC50 worked out at 223 nM. In assay [3], this compound gave a Ki of 6 nM.

In the case of `COC(=O)[C@@H]1C[C@H](OC(C)=O)C(=O)[C@H]2[C@@]1(C)CC[C@H]1C(=O)O[C@H](c3ccoc3)C[C@]21C` [SALVINORIN A], the maximal response (Emax) in the assay listed under Rattus norvegicus [1] stood at 100%. The EC50 in the assay listed under Rattus norvegicus [2] was 46 nM.

Regarding `COC(=O)C1=C[C@H](OC(C)=O)[C@H](OC(C)=O)[C@@H]2[C@@]3(C)C[C@@H](c4ccoc4)OC(=O)[C@@H]3CC[C@@]12C`, in assay [3], the affinity, expressed as Ki, was 1020 nM.

Turning to `COC(=O)[C@@H]1C[C@H](OC(C)=O)C(=O)[C@H]2[C@@]1(C)CC[C@H]1C(O)O[C@H](c3ccoc3)C[C@]21C` (some centres undefined), the Emax in the assay filed under Rattus norvegicus [1] was 107%. Also, the EC50 in the assay listed under Rattus norvegicus [2] came to 78 nM. The compound also displayed a Ki in assay [3] of 59 nM.

The compound `COC(=O)[C@@H]1C[C@H](OC(C)=O)[C@H](O)[C@H]2[C@@]1(C)CC[C@H]1C(=O)O[C@H](c3ccoc3)C[C@]21C` [1-ALPHA-HYDROXYSALVINORIN A] showed a Ki in assay [3] of 1130 nM.

Regarding `COC(=O)[C@@H]1C[C@H](OC=O)C(=O)[C@H]2[C@@]1(C)CC[C@H]1C(=O)O[C@H](c3ccoc3)C[C@]21C`, the Emax in the assay filed under Rattus norvegicus [1] came out at 108%. Besides, the EC50 in the assay filed under Rattus norvegicus [2] is 315 nM. In assay [3], the Ki was 18 nM.

Usually Emax stands for the greatest response seen or fitted, relative to the assay's reference. For orientation: EC50 means the concentration needed to bring the measured effect to its halfway point. What is called Ki is the equilibrium dissociation constant of an inhibitor or competing ligand from its target. Lower therefore signals tighter binding.
